Tests used:
[1] = target: Casein kinase I isoform gamma-1 (Homo sapiens) (UniProt Q9HCP0); experiment: Inhibition of CSNK1G1 (unknown origin) assessed as residual activity at 100 nM by KINOMEscan analysis relative to control
Homo sapiens = species on record: Homo sapiens; experiment: Inhibition of N-terminal GST-tagged recombinant human SOS1 N879A mutant (564 to 1049 residues) expressed in Escherichia coli assessed as reduction in KRAS G12C mutant activation at 10 uM by HTRF analysis relative to control
[2] = target: Casein kinase I isoform gamma-3 (Homo sapiens) (UniProt Q9Y6M4); experiment: Inhibition of CSNK1G3 (unknown origin) assessed as residual activity at 100 nM by KINOMEscan analysis relative to control
[3] = target: T1, Cyclin-dependent kinase 11A (Homo sapiens) (UniProt Q9UQ88); experiment: Inhibition of CDC2L2 (unknown origin) assessed as residual activity at 100 nM by KINOMEscan analysis relative to control
T1 sequence (whole entry): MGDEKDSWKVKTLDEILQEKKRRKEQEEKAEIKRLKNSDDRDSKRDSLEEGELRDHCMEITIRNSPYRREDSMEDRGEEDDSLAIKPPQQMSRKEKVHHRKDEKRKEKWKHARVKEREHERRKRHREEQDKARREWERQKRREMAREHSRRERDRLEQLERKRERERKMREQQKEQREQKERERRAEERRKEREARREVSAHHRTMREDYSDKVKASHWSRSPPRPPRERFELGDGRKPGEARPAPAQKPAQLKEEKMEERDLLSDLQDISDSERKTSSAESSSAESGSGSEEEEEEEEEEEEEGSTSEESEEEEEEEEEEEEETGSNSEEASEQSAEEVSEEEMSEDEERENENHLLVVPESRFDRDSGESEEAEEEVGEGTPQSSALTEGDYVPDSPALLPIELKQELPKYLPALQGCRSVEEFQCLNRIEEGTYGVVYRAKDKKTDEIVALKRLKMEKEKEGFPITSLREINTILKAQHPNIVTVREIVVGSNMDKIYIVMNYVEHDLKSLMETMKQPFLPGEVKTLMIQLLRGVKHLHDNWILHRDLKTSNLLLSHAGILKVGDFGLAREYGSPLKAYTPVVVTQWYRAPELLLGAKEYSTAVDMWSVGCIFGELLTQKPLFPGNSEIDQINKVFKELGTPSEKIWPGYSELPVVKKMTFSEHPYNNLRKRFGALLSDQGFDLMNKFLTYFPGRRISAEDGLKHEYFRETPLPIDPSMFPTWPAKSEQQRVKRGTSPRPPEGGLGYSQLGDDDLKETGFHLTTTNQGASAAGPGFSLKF

[4] = target: Homeodomain-interacting protein kinase 1 (Homo sapiens) (UniProt Q86Z02); experiment: Inhibition of HIPK1 (unknown origin) assessed as residual activity at 100 nM by KINOMEscan analysis relative to control
[5] = target: T2, Serine/threonine-protein kinase Nek9 (Homo sapiens) (UniProt Q8TD19); experiment: Inhibition of NEK9 (unknown origin) assessed as residual activity at 100 nM by KINOMEscan analysis relative to control
T2 sequence (whole entry): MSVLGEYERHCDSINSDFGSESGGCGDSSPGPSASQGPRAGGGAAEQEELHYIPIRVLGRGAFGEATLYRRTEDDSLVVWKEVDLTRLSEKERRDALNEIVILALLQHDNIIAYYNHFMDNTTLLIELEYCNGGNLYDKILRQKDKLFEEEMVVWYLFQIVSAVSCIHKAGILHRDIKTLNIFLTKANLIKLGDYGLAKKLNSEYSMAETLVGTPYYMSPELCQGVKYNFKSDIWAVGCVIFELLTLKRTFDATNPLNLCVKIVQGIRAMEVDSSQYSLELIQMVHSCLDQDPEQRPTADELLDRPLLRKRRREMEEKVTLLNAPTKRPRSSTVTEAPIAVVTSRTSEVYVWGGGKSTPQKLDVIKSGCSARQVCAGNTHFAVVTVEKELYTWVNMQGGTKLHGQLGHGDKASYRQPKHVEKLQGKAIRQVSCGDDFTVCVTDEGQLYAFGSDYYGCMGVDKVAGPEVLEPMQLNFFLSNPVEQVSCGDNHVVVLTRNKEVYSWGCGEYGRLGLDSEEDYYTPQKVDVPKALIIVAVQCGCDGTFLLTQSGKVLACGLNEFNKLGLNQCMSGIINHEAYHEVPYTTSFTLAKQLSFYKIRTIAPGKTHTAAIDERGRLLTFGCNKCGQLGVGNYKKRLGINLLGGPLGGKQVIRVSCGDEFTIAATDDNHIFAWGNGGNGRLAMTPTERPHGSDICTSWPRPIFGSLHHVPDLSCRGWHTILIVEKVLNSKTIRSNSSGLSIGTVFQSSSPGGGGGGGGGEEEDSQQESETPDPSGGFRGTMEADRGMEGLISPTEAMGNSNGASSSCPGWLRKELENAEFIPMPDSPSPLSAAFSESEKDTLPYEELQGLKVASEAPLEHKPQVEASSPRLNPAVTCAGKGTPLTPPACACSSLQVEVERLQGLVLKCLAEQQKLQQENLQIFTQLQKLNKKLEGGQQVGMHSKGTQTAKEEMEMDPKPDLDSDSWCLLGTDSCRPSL

[6] = target: Dual specificity protein kinase CLK3 (Homo sapiens) (UniProt P49761); experiment: Inhibition of CLK3 (unknown origin) assessed as residual activity at 100 nM by KINOMEscan analysis relative to control
Dual specificity protein kinase CLK3 (Homo sapiens), sequence (P49761 whole entry, looked up): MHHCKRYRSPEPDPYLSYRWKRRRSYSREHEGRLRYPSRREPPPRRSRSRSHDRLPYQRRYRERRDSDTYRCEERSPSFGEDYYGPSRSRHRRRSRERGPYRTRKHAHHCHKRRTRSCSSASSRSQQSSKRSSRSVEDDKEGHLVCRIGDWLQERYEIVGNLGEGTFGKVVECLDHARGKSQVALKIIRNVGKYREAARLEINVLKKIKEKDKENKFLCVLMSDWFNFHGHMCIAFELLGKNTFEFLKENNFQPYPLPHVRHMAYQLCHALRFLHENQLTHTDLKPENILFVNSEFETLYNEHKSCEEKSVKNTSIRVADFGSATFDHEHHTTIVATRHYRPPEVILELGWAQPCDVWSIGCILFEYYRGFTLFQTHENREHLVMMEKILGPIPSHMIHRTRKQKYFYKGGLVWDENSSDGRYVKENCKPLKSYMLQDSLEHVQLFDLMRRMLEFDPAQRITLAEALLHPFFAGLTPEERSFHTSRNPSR

Homeodomain-interacting protein kinase 1 (Homo sapiens), sequence (Q86Z02 whole entry, looked up): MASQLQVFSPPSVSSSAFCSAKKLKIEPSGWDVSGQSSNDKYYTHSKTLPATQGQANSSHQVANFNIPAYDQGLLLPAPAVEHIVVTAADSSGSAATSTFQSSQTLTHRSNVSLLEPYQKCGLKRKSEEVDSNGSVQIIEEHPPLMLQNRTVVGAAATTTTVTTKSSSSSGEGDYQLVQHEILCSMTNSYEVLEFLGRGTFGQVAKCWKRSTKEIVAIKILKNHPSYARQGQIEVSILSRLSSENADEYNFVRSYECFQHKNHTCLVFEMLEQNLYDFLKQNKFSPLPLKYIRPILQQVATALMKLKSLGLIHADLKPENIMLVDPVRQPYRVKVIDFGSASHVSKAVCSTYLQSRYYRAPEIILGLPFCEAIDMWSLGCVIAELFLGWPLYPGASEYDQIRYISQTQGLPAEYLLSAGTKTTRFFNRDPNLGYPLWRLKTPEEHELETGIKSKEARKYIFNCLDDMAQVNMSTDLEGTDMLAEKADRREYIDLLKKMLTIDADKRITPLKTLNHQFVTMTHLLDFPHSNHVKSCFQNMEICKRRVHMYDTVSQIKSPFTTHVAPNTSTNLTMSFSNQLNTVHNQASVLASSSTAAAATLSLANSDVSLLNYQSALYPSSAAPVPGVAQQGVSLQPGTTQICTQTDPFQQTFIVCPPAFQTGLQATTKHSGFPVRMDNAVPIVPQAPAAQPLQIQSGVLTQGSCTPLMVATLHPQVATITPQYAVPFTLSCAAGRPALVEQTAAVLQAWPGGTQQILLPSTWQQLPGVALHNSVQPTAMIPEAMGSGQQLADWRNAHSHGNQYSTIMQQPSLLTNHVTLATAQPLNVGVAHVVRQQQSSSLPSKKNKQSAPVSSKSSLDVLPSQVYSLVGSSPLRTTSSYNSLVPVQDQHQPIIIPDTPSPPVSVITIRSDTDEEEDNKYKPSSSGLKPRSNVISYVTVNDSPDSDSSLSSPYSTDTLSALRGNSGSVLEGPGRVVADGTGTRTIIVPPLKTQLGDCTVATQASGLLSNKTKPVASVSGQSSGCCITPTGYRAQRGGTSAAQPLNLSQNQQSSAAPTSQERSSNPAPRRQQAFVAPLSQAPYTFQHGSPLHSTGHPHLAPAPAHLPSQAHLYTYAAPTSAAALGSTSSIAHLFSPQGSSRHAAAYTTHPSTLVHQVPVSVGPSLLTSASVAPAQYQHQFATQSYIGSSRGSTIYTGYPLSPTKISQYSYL
Casein kinase I isoform gamma-1 (Homo sapiens), sequence (Q9HCP0 whole entry, looked up, the tested form may be a part, canonical isoform): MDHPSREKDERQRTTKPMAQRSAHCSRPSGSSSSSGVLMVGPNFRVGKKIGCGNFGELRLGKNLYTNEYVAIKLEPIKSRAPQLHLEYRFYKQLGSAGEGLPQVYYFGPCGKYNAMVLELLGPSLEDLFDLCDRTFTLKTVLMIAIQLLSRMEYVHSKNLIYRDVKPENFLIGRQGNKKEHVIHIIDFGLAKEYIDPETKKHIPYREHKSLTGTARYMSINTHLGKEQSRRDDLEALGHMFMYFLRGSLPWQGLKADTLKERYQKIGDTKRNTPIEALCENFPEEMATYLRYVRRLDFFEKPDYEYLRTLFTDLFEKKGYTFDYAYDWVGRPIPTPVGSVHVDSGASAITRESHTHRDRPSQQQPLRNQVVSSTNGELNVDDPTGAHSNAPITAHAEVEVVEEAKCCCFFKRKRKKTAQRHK
Casein kinase I isoform gamma-3 (Homo sapiens), sequence (Q9Y6M4 whole entry, looked up, canonical isoform): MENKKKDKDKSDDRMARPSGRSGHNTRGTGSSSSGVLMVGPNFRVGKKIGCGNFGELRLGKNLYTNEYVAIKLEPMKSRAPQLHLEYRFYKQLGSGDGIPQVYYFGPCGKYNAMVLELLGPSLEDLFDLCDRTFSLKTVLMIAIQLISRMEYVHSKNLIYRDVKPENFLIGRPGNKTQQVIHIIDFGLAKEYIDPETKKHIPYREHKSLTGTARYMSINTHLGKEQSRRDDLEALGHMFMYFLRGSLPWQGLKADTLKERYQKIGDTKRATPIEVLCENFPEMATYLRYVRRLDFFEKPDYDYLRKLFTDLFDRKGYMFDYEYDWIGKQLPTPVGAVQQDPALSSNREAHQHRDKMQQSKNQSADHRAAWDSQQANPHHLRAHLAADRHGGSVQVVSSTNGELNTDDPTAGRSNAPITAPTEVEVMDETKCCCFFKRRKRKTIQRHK

In the case of `COc1cc2ncnc(N[C@H](C)c3cccc4ccccc34)c2cc1OC`, the Activity [1] was 99%, the inhibition (Homo sapiens) was 37% and the Activity [2] was 87%. The Activity [3] was 82%, the Activity [4] was 75% and the Activity [5] was 100%. For the same compound, the Activity [6] was 92%.

— ChEMBL document CHEMBL5678818, “Discovery of potent SOS1 inhibitors that block RAS activation via disruption of the RAS-SOS1 interaction” (Proc Natl Acad Sci U S A, 2019)
